# Measured values reported in patent US6525001B1, “Substituted pyrimidine and pyridine herbicides” (Mid-American Commercialization Corporation, priority 1997, dated 2003).
# Tests used:
# Assay type in all cases: in vivo
# [1] = test system: bedstraw (Galium aparine); experiment: Test B pre-/postemergence; set-up: key: 0 is no effect; 10 is complete control; settings: for Bedstraw plant response rating: Preemergence
# Procedure, shortened: (§1)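 Seeds were planted and sprayed preemergence, while plants at 2 to 18 cm (1- to 4-leaf stage) were sprayed postemergence at the same time, with test chemical in a non-phytotoxic solvent mixture containing surfactant. After twelve to sixteen days in a greenhouse, injury was rated visually against untreated controls on a 0–10 scale.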
# [2] = test system: blackgrass (Alopecurus myosuroides); experiment: Test B pre-/postemergence; set-up: key: 0 is no effect; 10 is complete control; settings: for Blackgrass plant response rating: Preemergence
# Procedure, shortened: as §1
# [3] = test system: broadleaf signalgrass (Brachiaria decumbens); experiment: Test B pre-/postemergence; set-up: key: 0 is no effect; 10 is complete control; settings: for B. signalgrass plant response rating: Preemergence
# Procedure, shortened: as §1
# [4] = test system: cocklebur (Xanthium strumarium); experiment: Test B pre-/postemergence; set-up: key: 0 is no effect; 10 is complete control; settings: for Cocklebur plant response rating: Preemergence
# Procedure, shortened: as §1
# [5] = test system: corn (Zea mays); experiment: Test B pre-/postemergence; set-up: key: 0 is no effect; 10 is complete control; settings: for Corn plant response rating: Preemergence
# Procedure, shortened: as §1
# [6] = test system: crabgrass (Digitaria sanguinalis); experiment: Test B pre-/postemergence; set-up: key: 0 is no effect; 10 is complete control; settings: for Crabgrass plant response rating: Preemergence
# Procedure, shortened: as §1
# [7] = test system: giant foxtail (Setaria faberii); experiment: Test B pre-/postemergence; set-up: key: 0 is no effect; 10 is complete control
# Procedure, shortened: as §1
# [8] = test system: momingglory (Ipomoea hederacea); experiment: Test B pre-/postemergence; set-up: key: 0 is no effect; 10 is complete control
# Procedure, shortened: as §1
# [9] = test system: pigweed (Amaranthus retroflexus); experiment: Test B pre-/postemergence; set-up: key: 0 is no effect; 10 is complete control
# Procedure, shortened: as §1
# [10] = test system: purple nutsedge (Cyperus rotundus); experiment: Test B pre-/postemergence; set-up: key: 0 is no effect; 10 is complete control; settings: Postemergence
# Procedure, shortened: as §1
# [11] = test system: rape (Brassica napus); experiment: Test B pre-/postemergence; set-up: key: 0 is no effect; 10 is complete control
# Procedure, shortened: as §1
# [12] = test system: soybean (Glycine max); experiment: Test B pre-/postemergence; set-up: key: 0 is no effect; 10 is complete control
# Procedure, shortened: as §1
# [13] = test system: sugar beet (Beta vulgaris); experiment: Test B pre-/postemergence; set-up: key: 0 is no effect; 10 is complete control
# Procedure, shortened: as §1
# [14] = test system: velvetleaf (Abutilon theophrasti); experiment: Test B pre-/postemergence; set-up: key: 0 is no effect; 10 is complete control
# Procedure, shortened: as §1
# [15] = test system: wheat (Triticum aestivum); experiment: Test B pre-/postemergence; set-up: key: 0 is no effect; 10 is complete control
# Procedure, shortened: as §1
# [16] = test system: wild oat (Avena fatua); experiment: Test B pre-/postemergence; set-up: key: 0 is no effect; 10 is complete control
# Procedure, shortened: as §1
# [17] = test system: bamyardgrass (Echinochloa crus-galli); experiment: Test B flood test
# Procedure, shortened: (§2)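 Plants were grown to the 2-leaf stage before treatment with test chemical, then held in a greenhouse for twelve to sixteen days. Injury was visually rated against untreated controls on a 0–10 scale, where 0 is no effect and 10 is complete control.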
# [18] = test system: duck salad (Heteranthera limosa); experiment: Test B flood test
# Procedure, shortened: as §2
# [19] = test system: rice (Oryza sativa); experiment: Test B flood test
# Procedure, shortened: as §2
# [20] = test system: smallflower flatsedge (Cyperus difformis); experiment: Test B flood test
# Procedure, shortened: as §2
# [21] = Rate 250 g/ha, Postemergence (so in the source)
# [22] = Rate 62 g/ha, Postemergence (flood test)
# [23] = Rate 125 g/ha, Postemergence, flood test
# [24] = Rate 250 g/ha, Postemergence (flood test species)
# [25] = Rate 125 g/ha, Postemergence section (flood test species)
smiles,measurement,setting,value
CCc1cnc(-c2ccc(C(F)(F)F)cc2)nc1Cc1cccc(OC(F)(F)F)c1 [Compound 41],"Plant response rating, Bedstraw","[1]; Rate 62 g/ha, Postemergence",9
same,Bedstraw plant response rating,[1]; Rate 62 g/ha,2
same,"Plant response rating, Bedstraw","[1]; Rate 125 g/ha, Postemergence",9
same,Bedstraw plant response rating,[1]; Rate 125 g/ha,2
same,"Plant response rating, Bedstraw","[1]; Rate 250 g/ha, Postemergence",10
same,"Plant response rating, Bedstraw",[1]; [21],8
same,"Plant response rating, Blackgrass","[2]; Rate 62 g/ha, Postemergence",5
same,Blackgrass plant response rating,[2]; Rate 62 g/ha,7
same,"Plant response rating, Blackgrass","[2]; Rate 125 g/ha, Postemergence",6
same,Blackgrass plant response rating,[2]; Rate 125 g/ha,9
same,"Plant response rating, Blackgrass","[2]; Rate 250 g/ha, Postemergence",8
same,"Plant response rating, Blackgrass",[2]; [21],10
same,"Plant response rating, B. signalgrass","[3]; Rate 62 g/ha, Postemergence",2
same,B. signalgrass plant response rating,[3]; Rate 62 g/ha,2
same,"Plant response rating, B. signalgrass","[3]; Rate 125 g/ha, Postemergence",3
same,B. signalgrass plant response rating,[3]; Rate 125 g/ha,6
same,"Plant response rating, B. signalgrass","[3]; Rate 250 g/ha, Postemergence",6
same,"Plant response rating, B. signalgrass","[3]; Rate 250 g/ha, Postemergence as printed in head r139 (second section for compounds 26-50)",7
same,"Plant response rating, Cocklebur","[4]; Rate 62 g/ha, Postemergence",7
same,Cocklebur plant response rating,[4]; Rate 62 g/ha,0
same,"Plant response rating, Cocklebur","[4]; Rate 125 g/ha, Postemergence",8
same,Cocklebur plant response rating,[4]; Rate 125 g/ha,0
same,"Plant response rating, Cocklebur","[4]; Rate 250 g/ha, Postemergence",9
same,"Plant response rating, Cocklebur",[4]; [21],0
same,"Plant response rating, Corn","[5]; Rate 62 g/ha, Postemergence",2
same,Corn plant response rating,[5]; Rate 62 g/ha,0
same,"Plant response rating, Corn","[5]; Rate 125 g/ha, Postemergence",2
same,Corn plant response rating,[5]; Rate 125 g/ha,1
same,"Plant response rating, Corn","[5]; Rate 250 g/ha, Postemergence",3
same,"Plant response rating, Corn",[5]; [21],1
same,"Plant response rating, Crabgrass","[6]; Rate 62 g/ha, Postemergence",7
same,Crabgrass plant response rating,[6]; Rate 62 g/ha,8
same,"Plant response rating, Crabgrass","[6]; Rate 125 g/ha, Postemergence",9
same,Crabgrass plant response rating,[6]; Rate 125 g/ha,9
same,"Plant response rating, Crabgrass","[6]; Rate 250 g/ha, Postemergence",10
same,"Plant response rating, Crabgrass",[6]; [21],9
same,"Plant response rating, Giant foxtail","[7]; Rate 62 g/ha, Postemergence",2
same,Giant foxtail plant response rating,"[7]; Rate 62 g/ha, Preemergence",6
same,Giant foxtail plant response rating,"[7]; Rate 125 g/ha, Postemergence",6
same,Giant foxtail plant response rating,"[7]; Rate 125 g/ha, Preemergence",9
same,"Plant response rating, Giant foxtail","[7]; Rate 250 g/ha, Postemergence",9
same,"Plant response rating, Giant foxtail",[7]; [21],10
same,"Plant response rating, Morningglory","[8]; Rate 62 g/ha, Postemergence",8
same,Morningglory plant response rating,"[8]; Rate 62 g/ha, Preemergence",1
same,Morningglory plant response rating,"[8]; Rate 125 g/ha, Postemergence",8
same,Morningglory plant response rating,"[8]; Rate 125 g/ha, Preemergence",1
same,"Plant response rating, Morningglory","[8]; Rate 250 g/ha, Postemergence",8
same,"Plant response rating, Morningglory",[8]; [21],2
same,"Plant response rating, Redroot pigweed","[9]; Rate 62 g/ha, Postemergence",9
same,Redroot pigweed plant response rating,"[9]; Rate 62 g/ha, Preemergence",4
same,Redroot pigweed plant response rating,"[9]; Rate 125 g/ha, Postemergence",10
same,Redroot pigweed plant response rating,"[9]; Rate 125 g/ha, Preemergence",10
same,"Plant response rating, Redroot pigweed","[9]; Rate 250 g/ha, Postemergence",10
same,"Plant response rating, Redroot pigweed",[9]; [21],10
same,"Plant response rating, Nutsedge",[10]; Rate 62 g/ha,0
same,Nutsedge plant response rating,[10]; Rate 125 g/ha,0
same,"Plant response rating, Nutsedge",[10]; Rate 250 g/ha,0
same,"Plant response rating, Rape","[11]; Rate 62 g/ha, Postemergence",10
same,Rape plant response rating,"[11]; Rate 62 g/ha, Preemergence",3
same,Rape plant response rating,"[11]; Rate 125 g/ha, Postemergence",10
same,Rape plant response rating,"[11]; Rate 125 g/ha, Preemergence",3
same,"Plant response rating, Rape","[11]; Rate 250 g/ha, Postemergence",10
same,"Plant response rating, Rape",[11]; [21],4
same,"Plant response rating, Soybean","[12]; Rate 62 g/ha, Postemergence",5
same,Soybean plant response rating,"[12]; Rate 62 g/ha, Preemergence",0
same,Soybean plant response rating,"[12]; Rate 125 g/ha, Postemergence",7
same,"Plant response rating, Soybean","[12]; Rate 125 g/ha, Preemergence",0
same,"Plant response rating, Soybean","[12]; Rate 250 g/ha, Postemergence",7
same,"Plant response rating, Soybean",[12]; [21],1
same,"Plant response rating, Sugarbeets","[13]; Rate 62 g/ha, Postemergence",10
same,Sugarbeets plant response rating,"[13]; Rate 62 g/ha, Preemergence",3
same,Sugarbeets plant response rating,"[13]; Rate 125 g/ha, Postemergence",10
same,"Plant response rating, Sugarbeets","[13]; Rate 125 g/ha, Preemergence",6
same,"Plant response rating, Sugarbeets","[13]; Rate 250 g/ha, Postemergence",10
same,"Plant response rating, Sugarbeets",[13]; [21],8
same,"Plant response rating, Velvetleaf","[14]; Rate 62 g/ha, Postemergence",8
same,Velvetleaf plant response rating,"[14]; Rate 62 g/ha, Preemergence",1
same,Velvetleaf plant response rating,"[14]; Rate 125 g/ha, Postemergence",8
same,"Plant response rating, Velvetleaf","[14]; Rate 125 g/ha, Preemergence",3
same,"Plant response rating, Velvetleaf","[14]; Rate 250 g/ha, Postemergence",8
same,"Plant response rating, Velvetleaf",[14]; [21],10
same,Wheat plant response rating,"[15]; Rate 62 g/ha, Postemergence",2
same,Wheat plant response rating,"[15]; Rate 62 g/ha, Preemergence",1
same,Wheat plant response rating,"[15]; Rate 125 g/ha, Postemergence",3
same,"Plant response rating, Wheat","[15]; Rate 125 g/ha, Preemergence",1
same,"Plant response rating, Wheat","[15]; Rate 250 g/ha, Postemergence",3
same,"Plant response rating, Wheat",[15]; [21],2
same,Wild oats plant response rating,"[16]; Rate 62 g/ha, Postemergence",4
same,Wild oats plant response rating,"[16]; Rate 62 g/ha, Preemergence",4
same,Wild oats plant response rating,"[16]; Rate 125 g/ha, Postemergence",5
same,"Plant response rating, Wild oats","[16]; Rate 125 g/ha, Preemergence",9
same,"Plant response rating, Wild oats","[16]; Rate 250 g/ha, Postemergence",7
same,"Plant response rating, Wild oats",[16]; [21],9
same,"Plant response rating, Barnyardgrass",[17]; [22],5
same,"Plant response rating, Barnyardgrass",[17]; [23],5
same,"Plant response rating, Barnyardgrass",[17]; [24],5
same,"Plant response rating, Ducksalad",[18]; [22],2
same,"Plant response rating, Ducksalad",[18]; [23],3
same,"Plant response rating, Ducksalad",[18]; [24],5
same,"Plant response rating, Rice",[19]; [22],5
same,Rice plant response rating,[19]; [25],5
same,"Plant response rating, Rice",[19]; [24],6
same,"Plant response rating, S. Flatsedge",[20]; [22],5
same,S. Flatsedge plant response rating,[20]; [25],7
same,"Plant response rating, S. Flatsedge",[20]; [24],9
